Measured values taken from patent publication US4201774A, “Novel aminoglycoside derivatives” (Shionogi & Co., Ltd., priority 1977, dated 1980).
Values after ≈ are worked out from the molar mass of the structure shown.

Experiments:
Seratia marcescens MA-81 = assay: MIC, Seratia marcescens MA-81*; format: cell-based; details: Seratia marcescens MA-81, tobramycin resistant strain; read-out: minimum inhibitory concentration (MIC)
[1] = tested on: Escherichia coli W-677/JR-762; assay: MIC, Escherichia coli W-677/JR-762*; details: W677/JR762, read-out: minimum inhibitory concentration (MIC)
[2] = tested on: Staphylococus epidermidis TB-302; assay: MIC, Staphylococus epidermidis TB-302; format: cell-based; details: read-out: minimum inhibitory concentration (MIC)
[3] = tested on: Enterobacter cloacae Cl-126; assay: MIC, Enterobacter cloacae Cl-126*; details: CL126, read-out: minimum inhibitory concentration (MIC)
Escherichia coli EC-147 = assay: MIC, Escherichia coli EC-147*; details: EC147, read-out: minimum inhibitory concentration (MIC)
Escherichia coli EC-148 = assay: MIC, Escherichia coli EC-148*; details: EC148, read-out: minimum inhibitory concentration (MIC)
[4] = tested on: Staphylococcus aureus S-25; assay: MIC, Staphylococcus aureus S-25*; details: S25, read-out: minimum inhibitory concentration (MIC)
[5] = tested on: Escherichia coli W-677/JR 214; assay: MIC, Escherichia coli W-677/JR 214*; details: W677/JR214, read-out: minimum inhibitory concentration (MIC)
[6] = tested on: Klebsiella pneumoniae Kl-187; assay: MIC, Klebsiella pneumoniae Kl-187*; details: KL187, read-out: minimum inhibitory concentration (MIC)
[7] = tested on: Pseudomonas aeruginosa PP-6; assay: MIC, Pseudomonas aeruginosa PP-6*; details: PP6, read-out: minimum inhibitory concentration (MIC)
[8] = tested on: Escherichia coli W-677/JR 225; assay: MIC, Escherichia coli W-677/JR 225*; details: W677/JR225, read-out: minimum inhibitory concentration (MIC)
Proteus inconstans In-43 = assay: MIC, Proteus inconstans In-43*; format: cell-based; details: Providencia alcalifaciens, IN43; Proteus inconstans In-43, tobramycin resistant strain; read-out: minimum inhibitory concentration (MIC)
[9] = tested on: Citrobactor freundii Ct-52; assay: MIC, Citrobactor freundii Ct-52*; details: read-out: minimum inhibitory concentration (MIC)

With `NC[C@H]1O[C@H](O[C@H]2[C@H](O)[C@@H](O[C@H]3O[C@H](CO)[C@@H](O)[C@H](N)[C@H]3O)[C@H](NCC3(O)CNC3)C[C@@H]2N)[C@H](N)C[C@@H]1O` [Test compound (1), 1-N-[(3-hydroxyazetidin-3-yl)methyl]tobramycin] the MIC (Seratia marcescens MA-81) was 12.5 µg/mL (≈ 22.6 µM), the MIC [1] was 3.13 µg/mL (≈ 5.66 µM) and the MIC [2] was 3.13 µg/mL (≈ 5.66 µM). For the same compound, the MIC [3] was 0.78 µg/mL (≈ 1.41 µM), the MIC (Escherichia coli EC-147) was 3.13 µg/mL (≈ 5.66 µM) and the MIC (Escherichia coli EC-148) was 3.13 µg/mL (≈ 5.66 µM). For the same compound, the MIC [4] was 50 µg/mL (≈ 90.5 µM), the MIC [5] was 1.56 µg/mL (≈ 2.82 µM) and the MIC [6] was 0.78 µg/mL (≈ 1.41 µM). For the same compound, the MIC [7] was 0.78 µg/mL (≈ 1.41 µM), the MIC [8] was 1.56 µg/mL (≈ 2.82 µM) and the MIC (Proteus inconstans In-43) was 6.25 µg/mL (≈ 11.3 µM). For the same compound, the MIC [9] was 0.78 µg/mL (≈ 1.41 µM).
With `NC[C@H]1O[C@H](O[C@H]2[C@H](O)[C@@H](O[C@H]3O[C@H](CO)[C@@H](O)[C@H](N)[C@H]3O)[C@H](NCC3(O)CCNC3)C[C@@H]2N)[C@H](N)C[C@@H]1O` (some centres unmarked) [Test compound (2), 1-N-[(3-hydroxypyrrolidin-3-yl)methyl]tobramycin] the MIC (Seratia marcescens MA-81) was 12.5 µg/mL (≈ 22.1 µM), the MIC [1] was 3.13 µg/mL (≈ 5.52 µM) and the MIC [2] was 1.56 µg/mL (≈ 2.75 µM). For the same compound, the MIC [3] was 0.78 µg/mL (≈ 1.38 µM), the MIC (Escherichia coli EC-147) was 3.13 µg/mL (≈ 5.52 µM) and the MIC (Escherichia coli EC-148) was 3.13 µg/mL (≈ 5.52 µM). It also gave an MIC [4] of 25 µg/mL (≈ 44.1 µM), an MIC [5] of 1.56 µg/mL (≈ 2.75 µM) and an MIC [6] of 0.39 µg/mL (≈ 0.688 µM). It also gave an MIC [7] of 0.78 µg/mL (≈ 1.38 µM), an MIC [8] of 0.78 µg/mL (≈ 1.38 µM) and an MIC (Proteus inconstans In-43) of 12.5 µg/mL (≈ 22.1 µM). It also gave an MIC [9] of 0.78 µg/mL (≈ 1.38 µM).
`NC[C@H]1O[C@H](O[C@H]2[C@H](O)[C@@H](O[C@H]3O[C@H](CO)[C@@H](O)[C@H](N)[C@H]3O)[C@H](NCC3(O)CNC3)C[C@@H]2N)[C@H](O)[C@@H](O)[C@@H]1O` [Test compound (3), 1-N-[(3-hydroxyazetidin-3-yl)methyl]kanamycin A] was tested, and the MIC (Seratia marcescens MA-81) was 12.5 µg/mL (≈ 21.9 µM), the MIC [1] was 12.5 µg/mL (≈ 21.9 µM) and the MIC [2] was 3.13 µg/mL (≈ 5.49 µM). For the same compound, the MIC [3] was 1.56 µg/mL (≈ 2.74 µM), the MIC (Escherichia coli EC-147) was 6.25 µg/mL (≈ 11 µM) and the MIC (Escherichia coli EC-148) was 12.5 µg/mL (≈ 21.9 µM). It also gave an MIC [4] of 25 µg/mL (≈ 43.9 µM), an MIC [5] of 6.25 µg/mL (≈ 11 µM) and an MIC [6] of 1.56 µg/mL (≈ 2.74 µM). For the same compound, the MIC [7] was 3.13 µg/mL (≈ 5.49 µM), the MIC [8] was 3.13 µg/mL (≈ 5.49 µM) and the MIC (Proteus inconstans In-43) was 3.13 µg/mL (≈ 5.49 µM). The MIC [9] was 3.13 µg/mL (≈ 5.49 µM).
In the case of `NC[C@H]1O[C@H](O[C@H]2[C@H](O)[C@@H](O[C@H]3O[C@H](CO)[C@@H](O)[C@H](N)[C@H]3O)[C@H](NCC3(O)CCNC3)C[C@@H]2N)[C@H](O)[C@@H](O)[C@@H]1O` (some centres unmarked) [Test compound (4), 1-N-[(3-hydroxypyrrolidin-3-yl)methyl]kanamycin A], the MIC (Seratia marcescens MA-81) is reported as 12.5 µg/mL (≈ 21.4 µM), the MIC [1] is reported as 12.5 µg/mL (≈ 21.4 µM) and the MIC [2] is reported as 1.56 µg/mL (≈ 2.67 µM). The MIC [3] was 1.56 µg/mL (≈ 2.67 µM), the MIC (Escherichia coli EC-147) was 6.25 µg/mL (≈ 10.7 µM) and the MIC (Escherichia coli EC-148) was 6.25 µg/mL (≈ 10.7 µM). It also gave an MIC [4] of 12.5 µg/mL (≈ 21.4 µM), an MIC [5] of 3.13 µg/mL (≈ 5.36 µM) and an MIC [6] of 1.56 µg/mL (≈ 2.67 µM). It also gave an MIC [7] of 3.13 µg/mL (≈ 5.36 µM), an MIC [8] of 3.13 µg/mL (≈ 5.36 µM) and an MIC (Proteus inconstans In-43) of 3.13 µg/mL (≈ 5.36 µM). The MIC [9] was 1.56 µg/mL (≈ 2.67 µM).
`NC[C@H]1O[C@H](O[C@H]2[C@H](O)[C@@H](O[C@H]3O[C@H](CO)[C@@H](O)[C@H](N)[C@H]3O)[C@H](N)C[C@@H]2N)[C@H](N)C[C@@H]1O` [Test compound (5), tobramycin, reference compound] showed an MIC (Seratia marcescens MA-81) greater than 100 µg/mL, an MIC [1] greater than 100 µg/mL and an MIC [2] of 3.13 µg/mL (≈ 6.69 µM). For the same compound, the MIC [3] was 25 µg/mL (≈ 53.5 µM), the MIC (Escherichia coli EC-147) was 50 µg/mL (≈ 107 µM) and the MIC (Escherichia coli EC-148) was 100 µg/mL (≈ 214 µM). It also gave an MIC [4] of 100 µg/mL (≈ 214 µM), an MIC [5] of 100 µg/mL (≈ 214 µM) and an MIC [6] of 25 µg/mL (≈ 53.5 µM). For the same compound, the MIC [7] was 50 µg/mL (≈ 107 µM), the MIC [8] was 50 µg/mL (≈ 107 µM) and the MIC (Proteus inconstans In-43) was 6.25 µg/mL (≈ 13.4 µM). It also gave an MIC [9] of 25 µg/mL (≈ 53.5 µM).
